A short description of series [1]: MDCK-MDR1 permeability / efflux. The series is classed as in vitro ADME. The conditions noted are these: dog, MDCK-MDR1. How it is done:
(§1) Compound 70 was tested in several in in vitro assays to investigate both metabolism and pharmacokinetics. These assays may be performed according to known methods as generally described in the following references: Conde-Ceide et al. ACS Med. Chem. Lett. 2015, 6, 716-720; Morris et al. J. Med. Chem. 2014, 57, 10192-10197; and Bubser et al. ACS Chem. Neurosci. 2014, 5, 920-942.

In another series the test system is MDCK-MDR1. Nature of the series: MDCK-MDR1 permeability / efflux. The series is classed as in vitro ADME. The conditions noted are these: efflux ratio. How it is done:
as §1

The next series relates to male Sprague-Dawley rats. The series can be described thus: Amphetamine-induced hyperlocomotion in rats. The note with it: 100 mg/kg i.p., amphetamine 0.25 mg/kg s.c., p<0.001.
A short description of series [2]: In vivo pharmacokinetics in dog. The protocol:
Compound 70 was tested in several in vivo assays and the pharmacokinetic parameters listed in the following table may be determined from pharmacokinetic studies in rat, dog, or cynomolgus monkey, according to known methods as generally described in the following references: Garrison et al. J. Med. Chem. 2022, 65, 6273-6286; Felts et al. J. Med. Chem 2017, 60, 5072-5085; and Yu et al. J. Med. Chem. 2021, 64, 4709-4729.

In the next series the target is T1, Human M4 (Homo sapiens, UniProt P08173).
T1 sequence (P08173 1-479): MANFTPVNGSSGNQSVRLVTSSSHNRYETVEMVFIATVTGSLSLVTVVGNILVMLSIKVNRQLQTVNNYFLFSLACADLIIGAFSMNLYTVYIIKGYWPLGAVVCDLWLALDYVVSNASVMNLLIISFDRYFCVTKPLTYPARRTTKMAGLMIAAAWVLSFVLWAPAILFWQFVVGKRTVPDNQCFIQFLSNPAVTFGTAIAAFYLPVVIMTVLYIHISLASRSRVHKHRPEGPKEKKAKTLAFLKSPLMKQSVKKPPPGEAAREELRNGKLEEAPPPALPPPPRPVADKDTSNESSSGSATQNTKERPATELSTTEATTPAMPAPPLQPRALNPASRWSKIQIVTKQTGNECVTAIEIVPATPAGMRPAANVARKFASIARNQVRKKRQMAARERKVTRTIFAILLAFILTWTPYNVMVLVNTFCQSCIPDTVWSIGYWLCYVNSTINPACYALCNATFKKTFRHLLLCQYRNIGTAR
Nature of the series: Cellular cAMP Gi HTRF assay (agonist and potentiator modes). The note with it: n = 2. Type of series: cell-based. Set-up: expressed in transfected cells; host or cells: CHO cells stably expressing human M4. The source says:
Activation of the M4 receptor leads to the inhibition of cAMP production by coupling to Go proteins. To measure the level of CAMP inhibition by M4 allosteric modulators, a Homogeneous Time-Resolved Fluorescence (HTRF®) CAMP assay was employed using CHO cells stably expressing human or rat M4 receptors. The HTRF CAMP assay is a Time-Resolved Resonance Energy Transfer (TR-FRET) competitive immunoassay. Endogenous intracellular CAMP generated by cells competes with Europium cryptate-labeled cAMP (Europium donor, emission […]) for the binding to a cAMP antibody labeled with d2 (d2-acceptor, emission […]). Thus, the fluorescence emission ratio (665 nm/620 nm) is inversely proportional to the CAMP amount in the cells. Compound-mediated M4 activation results in an increase in HTRF ratio (665 nm/620 nm), indicative of a decrease in intracellular cAMP level. To monitor agonist activity, compounds were added to the M4 cells in the presence of an EC80 concentration of forskolin (adenylyl cyclase activator) which induces a submaximal intracellular cAMP level. To assess potentiator activity, compounds were added to the M4 cells with an EC50 concentration of forskolin in the presence of an EC20 concentration of acetylcholine. This functional assay allows determination of the potency and efficacy of compounds directly activating or potentiating the Gi/o-coupled M4 receptor; representative data are shown in Table 3.
Functional agonist and potentiator activities of compounds were determined by measuring cAMP levels in Chinese Hamster Ovary (CHO) cells stably expressing human or rat M4 muscarinic receptors using an HTRF CAMP Gi/o kit. Cells were maintained in F12 medium containing 10% FBS, 20 mM HEPES, 1× Antibiotic/Antimycotic, and G418 (500 μg/ml) in 37° C. humidified incubators in the presence of 5% CO2. The day before assay, the cells were trypsinized and resuspended in plating medium (growth medium without G418). The cells were plated to white, solid, flat-bottomed, 384 well plates at densities of 4,000 and 6,000 cells/10 μL/well, of human M4 and rat M4 cells, respectively. The cell plates were spun at 100×g for 1 min, then immediately placed in a 37° C. incubator in the presence of 5% CO2 overnight.
The next day, reagents were freshly diluted at a 2× concentration in assay buffer using F12 basal medium or stimulation buffer. All assay buffers contained 500 μM IBMX to block cAMP degradation. Activation of M4 by compounds was examined in cells stimulated with an EC80 concentration of forskolin to induce submaximal intracellular cAMP levels. Forskolin EC80 concentrations were determined from forskolin concentration response curves (CRCs) and ranged from 1.5 to 2.5 μM. […]

Where two headings read alike, the source gives them in different places.

With `Cc1c(N2CCc3nc(C4(F)CC4)sc3C2)nc2nn(C)c(=O)n2c1C` [Compound 70, 7-(2-(1-fluorocyclopropyl)-6,7-dihydrothiazolo[5,4-c]pyridin-5(4H)-yl)-2,5,6-trimethyl-[1,2,4]triazolo[4,3-a]pyrimidin-3(2H)-one], the Papp A→B in series [1] amounted to 36.7 ×10⁻⁶ cm/s. Further, the “MDCK-MDR1 ER” value in the series on MDCK-MDR1 was 0.9 (Papp A→ B:. Moreover, in the series on male Sprague-Dawley rats, the “percent reversal of amphetamine-induced hyperlocomotion” value was determined as 61.1%. For the same molecule, the “Dog oral F (3 mg/kg)” value in series [2] (oral 3 mg/kg) amounted to 83%. Besides, the clearance in series [2] (plasma, read-out: Dog CLp) was determined as 24.4 mL/min/kg. Besides, the half-life in series [2] (plasma, read-out: Dog Elim. t1/2 (converted)) is 2.1 h. Also, the Vd in series [2] (plasma, read-out: Dog Vss) came to 3.1 L/kg. Further, at Human M4 (agonist mode, EC80 forskolin, no acetylcholine), the “hM4_cAMP Activity Agonist % ACh Max” value is given as 81 % ACh Max. Moreover, the EC50 at Human M4 (agonist mode, EC80 forskolin, no acetylcholine, read-out: hM4_cAMP Activity Agonist EC50) was 19 nM; on Human M4 (potentiator mode, forskolin plus EC20 acetylcholine, read-out: hM4_cAMP Activity PAM EC50), 11 nM. Also, the “hM4_cAMP Activity PAM % ACh Max” value on Human M4 (potentiator mode, forskolin plus EC20 acetylcholine) came to 74 % ACh Max.
